Data taken from the OPERA property sets (Mansouri et al. 2018).

SMILES | logP
CC(=O)Nc1ccc(C(N)=O)cc1 | 0.01
CC(=O)Nc1cc(Cl)c(Cl)c(Cl)c1 | 3.76
CC(=O)Nc1ccccc1I | 1.62
CC(=O)Nc1cc([N+](=O)[O-])c(Br)cc1F | 2.11
CC(=O)Nc1cc(Br)cc(C(F)(F)F)c1Cl | 3.41
CC(=O)Nc1ccc(Cl)c(Cl)c1 | 3
CCCCc1ccc(NC(C)=O)cc1C | 3.64
CC(=O)Nc1cccc(Cl)c1Cl | 2.09
CC(=O)Nc1cc(Cl)ccc1Cl | 2.19
CCc1cc(Br)ccc1NC(C)=O | 2.27
CCc1cccc(C)c1NC(C)=O | 1.41
NC(=O)c1ccccc1Br | 0.77
CCc1ccc(NC(C)=O)cc1 | 2.2
NC(=O)c1ccccc1C(F)(F)F | 0.68
CCOc1ccc(C(N)=O)cc1 | 1.3
NC(=O)c1ccccc1Cl | 0.64
Cc1cccc([N+](=O)[O-])c1C(N)=O | 0.1
NC(=O)c1c(Br)cccc1Br | 1
CCc1ccccc1C(N)=O | 1.17
CC(=O)Nc1cc(C(F)(F)F)cc(C(F)(F)F)c1 | 3.72
CC(=O)Nc1ccc(Br)cc1C | 2.03
CCCCc1ccc(NC(C)=O)c([N+](=O)[O-])c1 | 3.1
CC(=O)Nc1c(F)c(F)c(F)c(F)c1F | 1.7

SMILES | logP
COc1ccc(C)c(OC)c1 | 2.76
CC(=O)Nc1cc(Cl)cc(Cl)c1Br | 3.04
COc1c(Cl)cccc1NC(C)=O | 1.68
COc1ccc(NC(C)=O)cc1Cl | 1.81
N#Cc1ccccc1C#N | 0.99
CC(=O)Nc1cccc(Br)c1 | 2.31
COc1cccc([N+](=O)[O-])c1C(N)=O | -0.26
COc1ccc(OC)c(Cl)c1 | 2.69
NC(=O)c1c(Cl)cccc1Cl | 0.77
CC(=O)Nc1cc(OC(F)(F)F)c(Cl)cc1Cl | 3.71
CCc1ccccc1OC | 3.18
CC(=O)Nc1c(F)ccc(C(F)(F)F)c1Br | 2.22
CC(=O)Nc1ccc(Cl)c(C(F)(F)F)c1 | 3.33
COc1cccc(NC(C)=O)c1C | 1.13
CC(=O)Nc1cc(C(F)(F)F)c(Cl)cc1Cl | 3.24
CC(C)(C)c1ccc(C(N)=O)cc1 | 2.51
COc1cccc(NC(C)=O)c1 | 1.3
C=CCOc1cc(NC(C)=O)c(F)cc1Cl | 2.76
COc1cc(Br)ccc1NC(C)=O | 2.02
CC(=O)Nc1c(F)cccc1F | 0.69
CC(=O)Nc1ccc(Cl)cc1C(F)(F)F | 1.98
CC(=O)Nc1c(Br)cccc1Br | 1.53
CC(=O)Nc1c(C(C)C)cccc1C(C)C | 2.41

SMILES | logP
CCc1cccc(C(C)C)c1NC(C)=O | 2.1
Cc1cccc(C)c1C(N)=O | 0.9
CC(=O)Nc1cc(Cl)cc(C(F)(F)F)c1F | 3.15
CC(=O)Nc1ccc(C)cc1C | 1.46
CC(=O)Nc1cc(Cl)cc(C(F)(F)F)c1Br | 3.26
N#Cc1cccc(C(N)=O)c1 | 0.52
CC(=O)Nc1ccc(Br)c(Cl)c1F | 2.86
CC(=O)Nc1cc(C(F)(F)F)c(F)cc1F | 2.34
O=[N+]([O-])c1cc(C(F)(F)F)cc([N+](=O)[O-])c1Cl | 2.5
CC(=O)Nc1ccc(Br)c(C)c1Cl | 2.73
CCc1cc(NC(C)=O)ccc1Br | 3.33
NC(=O)c1ccccc1I | 0.93
O=[N+]([O-])c1ccc(Cl)cc1[N+](=O)[O-] | 2.18
CC(=O)Nc1c(C)cc(C)cc1[N+](=O)[O-] | 1.18
COc1ccccc1C(=O)N(C)C | 0.71
CC(=O)Nc1ccc(Cl)cc1[N+](=O)[O-] | 1.78
CC(=O)Nc1ccc(C)c(C)c1 | 2.1
COc1c(C)cccc1NC(C)=O | 1.28
CC(=O)Nc1c(C)cc(Br)cc1C | 2.12
CC(=O)Nc1cc(C(F)(F)F)cc(Cl)c1Cl | 3.27
CC(=O)Nc1ccc(Cl)c(Cl)c1Cl | 2.88
N#Cc1ccccc1[N+](=O)[O-] | 1.02
CCc1cccc(CC)c1NC(C)=O | 1.85

SMILES | logP
CC(=O)Nc1ccc(Cl)cc1F | 1.91
CC(=O)Nc1cc(C(F)(F)F)ccc1Cl | 2.24
COc1ccc(NC(C)=O)c([N+](=O)[O-])c1 | 1.09
CC(=O)Nc1ccc(C)cc1 | 1.7
NC(=O)c1c(F)cccc1Br | 0.63
CCc1ccccc1NC(C)=O | 1.32
CC(=O)Nc1cc(C(F)(F)F)c(Br)cc1F | 3.17
NC(=O)c1c(F)cccc1F | 0.25
CC(=O)Nc1ccccc1-c1ccccc1 | 2.02
CC(=O)Nc1ccc(Oc2ccccn2)cc1 | 1.57
CC(=O)Nc1c(C)cccc1[N+](=O)[O-] | 0.61
Cc1cccc(Cl)c1C(N)=O | 0.89
CC(=O)Nc1cccc(Cl)c1C | 1.82
CC(=O)Nc1cccc(C)c1C | 1.35
COc1ccccc1Br | 2.86
NC(=O)c1ccccc1F | 0.59
CCCCc1ccc(NC(C)=O)cc1 | 3.3
CC(=O)Nc1cc(C(F)(F)F)c(Cl)cc1F | 3.02
CC(=O)Nc1cc(C)ccc1C | 1.47
CC(=O)Nc1c(Cl)cccc1Cl | 1.32
CC(=O)Nc1ccc(Br)c(C)c1 | 2.8
CC(=O)Nc1cc(Cl)cc(C(F)(F)F)c1Cl | 3.27
COc1cccc(Cl)c1C(N)=O | 0.59

SMILES | logP
COc1cccc(OC)c1 | 2.21
CCCCc1ccc(NC(C)=O)c(C)c1 | 3.1
CC(=O)Nc1c(C)cccc1C | 1.07
CC(=O)Nc1c(C)cccc1Cl | 1.22
NC(=O)c1c(Cl)cccc1Br | 1
NC(=O)c1c(F)cccc1Cl | 0.49
CCCc1cc(NC(C)=O)ccc1OC | 2.72
CC(=O)Nc1ccccc1C(F)(F)F | 1.17
CC(=O)Nc1cc(C)c(C)c(C)c1 | 2.5
CC(=O)Nc1cc(F)cc(C(F)(F)F)c1Cl | 2.86
CC(=O)Nc1cccc(F)c1 | 1.65
CC(=O)Nc1ccccc1F | 1.03
CC(C)c1ccccc1C(N)=O | 1.39
Cc1ccccc1C(N)=O | 0.76
CC(=O)Nc1ccc(Br)c(Cl)c1C | 2.69
NC(=O)c1c(Br)cccc1[N+](=O)[O-] | 0.28
CC(=O)Nc1cc(C)c(O)cc1C | 0.6
N#Cc1ccc(C(N)=O)cc1 | 0.48
CC(=O)Nc1ccc(C)cc1[N+](=O)[O-] | 1.49
COc1cccc([N+](=O)[O-])c1C | 2.68
CC(=O)Nc1ccc(C)c(Cl)c1 | 2.69
COc1ccccc1Cl | 2.68
CC(=O)Nc1cccc(Cl)c1 | 2.15

SMILES | logP
COc1cccc(OC)c1C | 2.87
CC(=O)Nc1ccc(C)c(C)c1C | 1.76
CC(=O)Nc1cccc(Cl)c1F | 1.83
CC(C)c1ccccc1[N+](=O)[O-] | 3.34
CC(=O)Nc1ccc(OC(F)(F)F)cc1 | 2.62
NC(=O)c1c(Cl)cccc1[N+](=O)[O-] | 0.12
COc1cccc(OC)c1C(N)=O | -0.22
COc1ccccc1F | 2.14
CC(=O)Nc1cc(C)cc(C)c1 | 2.17
CC(=O)Nc1cc(Cl)ccc1C | 1.82
CCCCc1ccc(NC(C)=O)c(Br)c1 | 3.39
CC(=O)Nc1ccccc1Oc1ccccc1 | 2.37
CC(=O)Nc1ccccc1Br | 1.34
CC(=O)Nc1cc(C)c(Br)c(C)c1 | 3.28
CC(=O)Nc1ccc(Cl)cc1Cl | 2.18
CC(=O)Nc1cccc([N+](=O)[O-])c1 | 1.47
CC(=O)Nc1cc(C(F)(F)F)ccc1F | 2.24
CC(=O)Nc1cc(Cl)cc(Cl)c1 | 3.17
CC(=O)Nc1c([N+](=O)[O-])cccc1[N+](=O)[O-] | 0.56
CC(=O)Nc1cc(Cl)c(F)c(Cl)c1F | 2.9
